Six compounds from publication PMC5860131, “Identification of natural products as novel ligands for the human 5-HT2C receptor” (Biophysics Reports, 2018) can be followed below.

The target of assay [1] is T1, 5-HT2C receptor (Homo sapiens, UniProt P28335, DEL255-298/G251D/H250E/H252N/INS299[…]/L248D/M247A/M300L/T253W).
T1 construct: the N- and C-terminals were truncated by 39 and 65 residues, respectively; FLAG (N); PreScission protease site + 10× His (C); made in house; host or cells: Spodoptera frugiperda (Sf9), baculovirus
T1 sequence (P28335 with tags, fused parts or gaps with the stated changes limits assumed): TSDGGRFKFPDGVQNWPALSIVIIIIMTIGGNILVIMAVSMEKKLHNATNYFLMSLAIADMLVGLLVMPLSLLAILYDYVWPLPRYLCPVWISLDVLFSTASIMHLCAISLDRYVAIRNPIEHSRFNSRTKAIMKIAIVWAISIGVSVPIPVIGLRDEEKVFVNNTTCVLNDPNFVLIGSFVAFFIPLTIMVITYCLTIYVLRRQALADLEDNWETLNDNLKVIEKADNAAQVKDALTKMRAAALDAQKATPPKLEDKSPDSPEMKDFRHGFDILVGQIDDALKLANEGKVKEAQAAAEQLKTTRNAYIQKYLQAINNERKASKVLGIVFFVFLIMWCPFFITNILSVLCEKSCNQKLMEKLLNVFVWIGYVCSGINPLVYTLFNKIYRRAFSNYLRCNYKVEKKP
The class given is binding.

In assay [2] the test system is cortical pyramidal neurons. Put plainly: Whole-cell patch clamp recording of spontaneous synaptic current (SPSC) in brain slices. The class given is cell-based. Conditions: 10 μmol/L; mouse brain slices. The protocol: 5-HT receptors play important roles in central and peripheral nervous systems. Malfunctions of these receptors have been linked to many neural disorders such as depression and psychosis. The effect of (–)-crebanine on changes in 5-HT induced synaptic transmission was evaluated by electrophysiological recording of mouse brain slices (Jang et al. [2012]). The spontaneous synaptic current (SPSC) of cortical pyramidal neurons was recorded in whole cell mode.
Cortical slices from ICR mouse of both genders (15–21 days) were prepared for electrophysiological recording. In brief, the animals were decapitated and brains were placed in cold sucrose artificial cerebrospinal fluid (sucrose-ASCF, in mmol/L: sucrose 213, KCl 2.5, NaH2PO4 1.25, NaHCO3 26, D-glucose 10, MgSO4 2, CaCl2 2, pH 7.4, 0–4 °C, saturated with 95% O2 and 5% CO2). The brains were cut into 280 or 300 μm slices with a vibratome (Leica VT1200S, Germany); slices were then incubated with ACSF (in mmol/L: NaCl 126, KCl 2.5, NaH2PO4 1.25, NaHCO3 26, D-glucose 25, MgSO4 2, CaCl2 2, pH 7.4, saturated with 95% O2 and 5% CO2) at room temperature for 1 h.
A whole-cell patch clamp technique was used. […] Activity of cortical pyramidal neurons was recorded using an amplifier (HEKA EPC 10 USB, Germany) in the voltage clamp mode. […]

Another assay deals with T2, 5-HT2A receptor (Homo sapiens, UniProt P28223).
T2 construct: expressed in transfected cells; host or cells: HEK 293T, stably transfected
T2 sequence (P28223 whole entry): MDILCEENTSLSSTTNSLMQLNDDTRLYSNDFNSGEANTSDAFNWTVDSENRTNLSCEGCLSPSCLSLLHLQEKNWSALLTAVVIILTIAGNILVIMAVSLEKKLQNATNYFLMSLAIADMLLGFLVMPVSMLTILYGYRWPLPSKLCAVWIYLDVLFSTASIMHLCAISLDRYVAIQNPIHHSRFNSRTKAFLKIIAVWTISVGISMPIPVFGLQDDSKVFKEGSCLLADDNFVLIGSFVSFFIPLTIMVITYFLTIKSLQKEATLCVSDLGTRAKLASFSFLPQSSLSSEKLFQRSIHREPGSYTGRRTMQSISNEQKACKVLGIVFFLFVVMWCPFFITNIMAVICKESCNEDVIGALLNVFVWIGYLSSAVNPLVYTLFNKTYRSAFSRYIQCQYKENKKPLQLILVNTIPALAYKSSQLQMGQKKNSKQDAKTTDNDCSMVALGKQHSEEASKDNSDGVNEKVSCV
Put plainly: Ca2+ mobilization assay (Fluo-4, FLIPR), HEK 293T cells stably transfected with 5-HT2A. In kind it is cell-based. Conditions: agonist mode, up to 30,000 nmol/L. The text has this:
(§1) The 5-HT2C receptor mainly couples to Gαq proteins. The activated 5-HT2C receptor transmits the signals from the extracellular to the intercellular side using DAG/IP3 (diacyl glycerol/inositol 1,4,5-trisphosphate) as its second massagers (Hannon and Hoyer [2008]). IP3 stimulates the endoplasmic reticulum to release calcium ions into the cytoplasm, which causes the increase of calcium concentration in cytosol. Therefore, calcium mobilization assay is commonly applied to understand how unknown small molecule ligands of 5-HT2C receptor modulate cellular signal transductions. In this case, Fluo-4 Direct dye was used as a fluorescence indicator to detect calcium flux in G protein-coupled receptor expressed cells. The fold of maximum response over average of basal reading is plotted against compound concentration to determine the potency of the compounds (Fig. 3). […]. […] After the dye loaded, cells were placed in a FLIPR^TETRA fluorescence imaging plate reader (Molecular Devices); drug dilutions, prepared at 3× final concentration in FLIPR buffer and aliquotted into 384-well plates, were also added to the FLIPR^TETRA. The fluidics module and plate reader of the FLIPR^TETRA were programmed to read baseline fluorescence for 10 s (1 read/s), then to add 10 μl of drug/well and to read for 6 min (1 read/s). […]

Another assay concerns the target T3, 5-HT2B receptor (Homo sapiens, UniProt P41595).
T3 construct: expressed in transfected cells; host or cells: HEK 293T, stably transfected
In words: Ca2+ mobilization assay (Fluo-4, FLIPR), HEK 293T cells stably transfected with 5-HT2B. In kind it is cell-based. Conditions: agonist mode, up to 30,000 nmol/L.
Text: as §1

Assay [3] addresses T4, 5-HT2C receptor (Homo sapiens, UniProt P28335).
T4 construct: expressed in transfected cells; host or cells: HEK 293T, stably transfected
T4 sequence (P28335 33-458): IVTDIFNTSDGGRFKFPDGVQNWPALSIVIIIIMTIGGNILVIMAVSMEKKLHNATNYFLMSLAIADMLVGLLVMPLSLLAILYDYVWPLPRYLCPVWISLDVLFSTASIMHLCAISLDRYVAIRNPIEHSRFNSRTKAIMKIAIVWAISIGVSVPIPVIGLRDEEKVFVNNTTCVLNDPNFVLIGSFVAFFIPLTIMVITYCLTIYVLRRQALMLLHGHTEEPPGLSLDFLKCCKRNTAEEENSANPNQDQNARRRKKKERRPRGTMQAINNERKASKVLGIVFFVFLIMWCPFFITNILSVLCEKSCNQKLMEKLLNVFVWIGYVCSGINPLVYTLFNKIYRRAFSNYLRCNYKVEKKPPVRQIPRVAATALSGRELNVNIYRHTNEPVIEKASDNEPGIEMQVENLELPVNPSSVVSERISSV
Put plainly: Ca2+ mobilization assay (Fluo-4, FLIPR), HEK 293T cells stably transfected with 5-HT2C. In kind it is cell-based. The text has this:
The 5-HT2C receptor mainly couples to Gαq proteins. The activated 5-HT2C receptor transmits the signals from the extracellular to the intercellular side using DAG/IP3 (diacyl glycerol/inositol 1,4,5-trisphosphate) as its second massagers (Hannon and Hoyer [2008]). IP3 stimulates the endoplasmic reticulum to release calcium ions into the cytoplasm, which causes the increase of calcium concentration in cytosol. Therefore, calcium mobilization assay is commonly applied to understand how unknown small molecule ligands of 5-HT2C receptor modulate cellular signal transductions. In this case, Fluo-4 Direct dye was used as a fluorescence indicator to detect calcium flux in G protein-coupled receptor expressed cells. The fold of maximum response over average of basal reading is plotted against compound concentration to determine the potency of the compounds (Fig. 3). […]. HEK 293T cells stably transfected with 5-HT2A/2B/2C receptor were seeded in 384-well plates at a density of 15,000 cells/well in DMEM containing 1% dialyzed FBS 8 h before the calcium flux assay. After removing medium, cells were then incubated (20 μl/well) for 1 h at 37 °C with Fluo-4 Direct dye (Invitrogen) reconstituted in FLIPR buffer (1× HBSS, 2.5 mmol/L probenecid, and 20 mmol/L HEPES, pH 7.4). After the dye loaded, cells were placed in a FLIPR^TETRA fluorescence imaging plate reader (Molecular Devices); drug dilutions, prepared at 3× final concentration in FLIPR buffer and aliquotted into 384-well plates, were also added to the FLIPR^TETRA. The fluidics module and plate reader of the FLIPR^TETRA were programmed to read baseline fluorescence for 10 s (1 read/s), then to add 10 μl of drug/well and to read for 6 min (1 read/s). Fluorescence in each well was normalized to the average of the first 10 reads (i.e., baseline fluorescence). Then, the maximum-fold increase, which occurred within 60 s after drug addition, over baseline fluorescence elicited by vehicle or drug was determined. […]

The target in assay [4] is T1, 5-HT2C receptor. The class given is binding. The settings on record: CPM assay, comparing to apo-protein.

T3 sequence (P41595 whole entry): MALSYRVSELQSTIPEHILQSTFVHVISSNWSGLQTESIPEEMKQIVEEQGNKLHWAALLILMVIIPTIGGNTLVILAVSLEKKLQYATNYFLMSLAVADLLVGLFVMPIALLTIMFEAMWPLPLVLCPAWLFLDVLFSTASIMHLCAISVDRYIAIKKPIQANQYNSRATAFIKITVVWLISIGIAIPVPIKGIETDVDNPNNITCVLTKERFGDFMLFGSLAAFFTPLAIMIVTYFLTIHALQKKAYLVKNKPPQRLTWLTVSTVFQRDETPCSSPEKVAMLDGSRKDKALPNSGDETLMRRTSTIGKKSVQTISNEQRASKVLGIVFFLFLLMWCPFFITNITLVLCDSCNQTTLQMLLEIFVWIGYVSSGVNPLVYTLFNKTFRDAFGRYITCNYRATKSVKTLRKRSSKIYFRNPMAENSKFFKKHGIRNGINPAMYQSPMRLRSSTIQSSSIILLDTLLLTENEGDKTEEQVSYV

For `Cc1nc2sccn2c(=O)c1CCN1CCC(=C(c2ccc(F)cc2)c2ccc(F)cc2)CC1` [Ritanserin, ritanserin, reference compound], at 5-HT2C receptor [1], the S/C is on record as 8.39 ± 1.80 and the “affinity (in words)” value was “high nmol/L range”.

In the case of `NCCc1c[nH]c2ccc(O)cc12` [Compound 5-HT, 5-hydroxytryptamine, reference compound], the “effect on SPSC” value in assay [2] is “amplified”.

As for `COc1ccc2c(c1O)-c1c(OC)c(OC)cc3c1[C@H](C2)N(C)CC3` [Compound 5, (+)-isocorydine], the receptor activation result on 5-HT2A receptor and at 5-HT2B receptor was “inactive” each time. For the same compound, on 5-HT2C receptor [3], the 50% effective concentration (EC50) was determined as 2080 nM. In addition, the Emax on 5-HT2C receptor [3] (HEK-293T) was 16.6%.

`COc1ccc2c(c1O)-c1c(O)c(OC)cc3c1[C@H](C2)[N+](C)(C)CC3` [Compound 3, (+)-magnoflorine]: the “thermal shift value (∆Tm)” value on 5-HT2C receptor [4] was < 1.00 °C.

For the compound `COc1cc2cc3c4c(cc(OC)c(OC)c4c2cc1OC)CCN3C` [Compound 4, didehydroglaucine], the “thermal shift value (∆Tm)” value on 5-HT2C receptor [4] was < 1.00 °C.

On to `COc1cc2c(cc1OC)-c1c3c(cc4c1[C@@H](C2)N(C)CC4)OCO3` [Compound 2, (–)-dicentrine], for which the “thermal shift value (∆Tm)” value at 5-HT2C receptor [4] is < 1.00 °C.
